Measurements reported in patent US20170311608A1, “BACILLUS THURINGIENSIS SUBSP. AIZAWAI AND CYANTRANILIPROLE MIXTURES FOR DIAMONDBACK MOTH, CABBAGE LOOPER, BEET ARMYWORM, SOYBEAN LOOPER, CORN EARWORM, SOUTHWESTERN CORN BORER AND SUGARCANE BORER CONTROL” (priority 2016, published 2017).
Read-outs that look alike come from different tables or passages of the source.

Key:
soybean looper larvae = assay: Leaf dip test, soybean looper larvae; type: in vivo, Chrysodeixis includens; conditions: foliar, Bta 27 ppm, cyantraniliprole 1.0 ppm, mixture 27 ppm + 1.0 ppm, read-out: % Efficacy
Description: (§1) The present invention is not limited to the products or formulation types used herein. In each example below, the studies were conducted as follows.
(§2) For these tests, standardized laboratory leaf dip methods were used to inoculate plant material with treatment(s). Dry, treated leaves were placed into Petri dishes (100×25 mm) containing filter paper wetted with 500 μl of distilled H2O (“dH2O”). Each dish was then infested with between 5 and 10 larvae, dependent on species. Efficacy ratings were taken at specified intervals. Synergy ratings were calculated for each test.
(§3) % Cexp=A+B−(AB/100), where % Cexp is the expected efficacy and “in which A and B are the control levels given by the single [insecticides]. […] Adopting a conservative approach, Applicant determined synergy to be present at ratios of >1.15.

cabbage looper larvae = assay: Leaf dip test, cabbage looper larvae; type: in vivo; conditions: Trichoplusia ni, foliar, Bta 2.7 ppm, cyantraniliprole 0.50 ppm, mixture 2.7 ppm + 0.50 ppm, read-out: % Efficacy
Description: as §1, §2, §3

sugarcane borer larvae = assay: Leaf dip test, sugarcane borer larvae; type: in vivo; conditions: Diatraea saccharalis, foliar, Bta 2.7 ppm, cyantraniliprole 1.0 ppm, mixture 2.7 ppm + 1.0 ppm, read-out: % Efficacy
Description: as §1, §2, §3

[1] = tested on: southwestern corn borer larvae; assay: Leaf dip test, southwestern corn borer larvae; type: in vivo, Diatraea grandiosella; conditions: foliar, Bta 2.7 ppm, cyantraniliprole 0.1 ppm, mixture 2.7 ppm + 0.1 ppm, read-out: % Efficacy
Description: as §1, §2, §3

beet armyworm larvae = assay: Leaf dip test, beet armyworm larvae; type: in vivo; conditions: Spodoptera exigua, foliar, Bta 2.7 ppm, cyantraniliprole 1.0 ppm, mixture 2.7 ppm + 1.0 ppm, read-out: % Efficacy
Description: as §1, §2, §3

corn earworm larvae = assay: Leaf dip test, corn earworm larvae; type: in vivo; conditions: Helicoverpa zea, foliar, Bta 27 ppm, cyantraniliprole 10.0 ppm, mixture 27 ppm + 10.0 ppm, read-out: % Efficacy
Description: as §1, §2, §3

diamondback moth larvae = assay: Leaf dip test, diamondback moth larvae; type: in vivo; conditions: Plutella xylostella, foliar, Bta 2.7 ppm, cyantraniliprole 0.1 ppm, mixture 2.7 ppm + 0.1 ppm, read-out: % Efficacy
Description: The following examples illustrate the effectiveness of Bacillus thuringiensis subsp. aizawai and cyantraniliprole when controlling diamondback moth, cabbage looper, beet armyworm, soybean looper, corn earworm, southwestern corn borer and sugarcane borer. Xentari® was used as the source of Bacillus thuringiensis subsp. aizawai and Exirel® was used as the source of cyantraniliprole. The present invention is not limited to the products or formulation types used herein. In each example below, the studies were conducted as follows.
For these tests, standardized laboratory leaf dip methods were used to inoculate plant material with treatment(s). […] Synergy ratings were calculated for each test. […]
% Cexp=A+B−(AB/100), where % Cexp is the expected efficacy and “in which A and B are the control levels given by the single [insecticides]. […] Adopting a conservative approach, Applicant determined synergy to be present at ratios of >1.15. […]
In order to determine synergy, rates below normal field rate ranges must be used. If normal field rate ranges are used, all of the larvae would die (combining a lethal or near lethal dose of Bacillus thuringiensis subsp. aizawai with a lethal dose of cyantraniliprole would most likely lead to larvae death) in every treatment and synergy would not be able to be determined. […]

CNC(=O)c1cc(C#N)cc(C)c1NC(=O)c1cc(Br)nn1-c1ncccc1Cl [Cyantraniliprole, 3-Bromo-1-(3-chloro-2-pyridinyl)-N-[4-cyano-2-methyl-6-(methylcarbamoyl)phenyl]-1H-pyrazole-5-carboxamide]
Emax at 1 ppm (soybean looper larvae; 24 h after treatment): 4%
Emax at 1 ppm (soybean looper larvae; 48 h after treatment): 25%
Emax at 0.5 ppm (cabbage looper larvae; 24 h after treatment): 18%
Emax at 0.5 ppm (cabbage looper larvae; 48 h after treatment): 38%
Emax at 1 ppm (sugarcane borer larvae; 24 h after treatment): 42%
Emax at 1 ppm (sugarcane borer larvae; 48 h after treatment): 42%
Emax at 0.1 ppm ([1]; 24 h after treatment): 17%
Emax at 0.1 ppm ([1]; 48 h after treatment): 24%
Emax at 1 ppm (beet armyworm larvae; 24 h after treatment): 22%
Emax at 1 ppm (beet armyworm larvae; 48 h after treatment): 36%
Emax at 10 ppm (corn earworm larvae; 24 h after treatment): 49%
Emax at 10 ppm (corn earworm larvae; 48 h after treatment): 51%
Emax at 0.1 ppm (diamondback moth larvae; 24 h after treatment): 34%
Emax at 0.1 ppm (diamondback moth larvae; 48 h after treatment): 60%
